# US7858640B2, “Quinolines and their therapeutic use” (Pulmagen Therapeutics (Asthma) Limited, priority 2005, dated 2010)
# Biological target: T1, CRTH2 receptor (Homo sapiens, UniProt Q9Y5Y4)
# T1 sequence (Q9Y5Y4 1-395): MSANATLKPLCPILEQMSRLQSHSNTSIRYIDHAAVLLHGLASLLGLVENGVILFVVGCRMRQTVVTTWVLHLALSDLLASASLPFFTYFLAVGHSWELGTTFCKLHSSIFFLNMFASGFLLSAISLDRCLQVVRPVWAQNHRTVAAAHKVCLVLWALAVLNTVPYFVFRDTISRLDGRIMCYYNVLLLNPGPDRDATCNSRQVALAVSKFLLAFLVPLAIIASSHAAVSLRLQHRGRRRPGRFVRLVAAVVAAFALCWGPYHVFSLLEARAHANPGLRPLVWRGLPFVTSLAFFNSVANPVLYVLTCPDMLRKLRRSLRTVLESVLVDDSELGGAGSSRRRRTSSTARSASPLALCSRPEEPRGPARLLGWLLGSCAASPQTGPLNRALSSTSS
# Assay: Radioligand binding assay ([3H]-PGD2 displacement, SPA)
# Set-up: expressed in transfected cells; host or cells: HEK cell membranes
# Conditions: HEK cell membranes expressing the CRTH2 receptor, 1 nM [3H]-PGD2; Ki from IC50 by Cheng-Prusoff
# Description: Radioligand Binding Assay
# The receptor binding assay is performed in a final volume of 200 μL binding buffer [10 mM BES (pH 7.4), 1 mM EDTA, 10 mM manganese chloride, 0.01% BSA] and 1 nM [^3H]-PGD2 (Amersham Biosciences UK Ltd). Ligands are added in assay buffer containing a constant amount of DMSO (1% by volume). Total binding is determined using 1% by volume of DMSO in assay buffer and non-specific binding is determined using 10 μM of unlabeled PGD2 (Sigma). Human embryonic kidney (HEK) cell membranes (3.5 μg) expressing the CRTH2 receptor are incubated with 1.5 mg wheatgerm agglutinin SPA beads and 1 nM [^3H]-PGD2 (Amersham Biosciences UK Ltd) and the mixture incubated for 3 hours at room temperature. Bound [^3H]-PGD2 is detected using a Microbeta TRILUX liquid scintillation counter (Perkin Elmer). Compound IC50 value is determined using a 6-point dose response curve in duplicate with a semi-log compound dilution series. IC50 calculations are performed using Excel and XLfit (Microsoft), and this value is used to determine a Ki value for the test compound using the Cheng-Prusoff equation.
row,Structure (SMILES),Ki [nM]
1,"COc1c(Cc2ccc(Cl)cc2)c(C)nc2c(Cl)ccc(OCC(=O)O)c12 [Example 1, [8-chloro-3-(4-chlorobenzyl)-4-methoxy-2-methylquinolin-5-yloxy]acetic Acid]",< 100
2,"Cc1nc2c(Cl)ccc(OCC(=O)O)c2c(C)c1Cc1ccc(Cl)cc1 [Example 2, [8-chloro-3-(4-chlorobenzyl)-2,4-dimethylquinolin-5-yloxy]acetic Acid]",< 100
3,"CCOc1nc2cc(C)cc(CC(=O)O)c2c(C)c1Cc1ccc(Cl)cc1 [Example 3, [3-(4-chlorobenzyl)-2-ethoxy-4,7-dimethylquinolin-5-yl]acetic Acid]",< 100
4,"Cc1cc(OCC(=O)O)c2c(C)c(Cc3ccc(Cl)cc3)c(C)nc2c1 [Example 4, [3-(4-chlorobenzyl)-2,4,7-trimethylquinolin-5-yloxy]acetic Acid]",< 1000
5,"Cc1cc(CC(=O)O)c2c(C)c(Cc3ccc(Cl)cc3)c(C)nc2c1 [Example 5, [3-(4-chlorobenzyl)-2,4,7-trimethylquinolin-5-yl]acetic Acid]",< 1000
6,"Cc1nc2c(Cl)ccc(CC(=O)O)c2c(C)c1Cc1ccc(Cl)cc1 [Example 6, [8-chloro-3-(4-chlorobenzyl)-2,4-dimethylquinolin-5-yl]acetic Acid]",< 100
7,"Cc1nc2c(Cl)ccc(OCC(=O)O)c2c(C)c1Oc1ccc(Cl)cc1 [Example 7, [8-chloro-3-(4-chlorophenoxy)-2,4-dimethylquinolin-5-yloxy]acetic Acid]",< 100
8,"Cc1nc2c(Cl)ccc(OCC(=O)O)c2c(C)c1Sc1ccc(Cl)cc1 [Example 8, [8-chloro-3-(4-chlorophenylsulfanyl)-2,4-dimethylquinolin-5-yloxy]acetic Acid]",< 100
9,"Cc1nc2c(Cl)ccc(OCC(=O)O)c2c(OC(F)F)c1Cc1ccc(Cl)cc1 [Example 9, [8-chloro-3-(4-chlorobenzyl)-4-difluoromethoxy-2-methylquinolin-5-yloxy]acetic Acid]",< 100
10,"Cc1nc2c(Cl)ccc(OCC(=O)O)c2cc1Cc1ccc(Cl)cc1 [Example 10, [8-chloro-3-(4-chlorobenzyl)-2-methylquinolin-5-yloxy]acetic Acid]",< 1000
11,"Cc1nc2cc(Cl)cc(CC(=O)O)c2c(C)c1Cc1ccc(Cl)cc1 [Example 11, [7-chloro-3-(4-chlorobenzyl)-2,4-dimethylquinolin-5-yl]acetic acid]",< 100
12,"Cc1nc2c(Cl)ccc(OCC(=O)NS(C)(=O)=O)c2c(C)c1Cc1ccc(Cl)cc1 [Example 13, N-{2-[8-chloro-3-(4-chlorobenzyl)-2,4-dimethylquinolin-5-yloxy]-acetyl}methanesulfonamide]",< 1000
13,"Cc1nc2c(Cl)ccc(OCC(=O)NS(=O)(=O)c3ccccc3)c2c(C)c1Cc1ccc(Cl)cc1 [Example 14, N-{2-[8-chloro-3-(4-chlorobenzyl)-2,4-dimethylquinolin-5-yloxy]-acetyl}benzenesulfonamide]",< 10000
14,"Cc1nc2c(Cl)ccc(CC(=O)O)c2c(C)c1Oc1ccc(Cl)cc1 [Example 15, [8-chloro-3-(4-chlorophenoxy)-2,4-dimethylquinolin-5-yl]acetic Acid]",< 100
15,"CCc1c(Cc2ccc(Cl)cc2)c(C)nc2c(Cl)ccc(OCC(=O)O)c12 [Example 16, [8-chloro-3-(4-chlorobenzyl)-4-ethyl-2-methylquinolin-5-yloxy]acetic acid]",< 100
16,"CCc1nc2c(Cl)ccc(OCC(=O)O)c2c(C)c1Cc1ccc(Cl)cc1 [Example 17, [8-chloro-3-(4-chlorobenzyl)-2-ethyl-4-methylquinolin-5-yloxy]acetic Acid]",< 100
17,"Cc1c(Cc2ccc(F)cc2)c(OC(F)F)nc2c(Cl)ccc(OCC(=O)O)c12 [Example 19, [8-chloro-2-difluoromethoxy-3-(4-fluorobenzyl)-4-methylquinolin-5-yloxy]acetic acid]",< 100
18,"Cc1nc2c(Cl)ccc(OCC(=O)O)c2c(C)c1S(=O)(=O)c1ccc(Cl)cc1 [Example 21, [8-chloro-3-(4-chlorobenzenesulfonyl)-2,4-dimethylquinolin-5-yloxy]acetic Acid]",< 100

row,Structure (SMILES),Ki [nM]
1,"Cc1nc2c(Cl)ccc(OCC(=O)O)c2c(C)c1[S+]([O-])c1ccc(Cl)cc1 (stereo not drawn) [Example 22, [8-chloro-3-(4-chlorobenzenesulfinyl)-2,4-dimethylquinolin-5-yloxy]acetic Acid]",< 100
2,"Cc1nc2c(Cl)ccc(OCc3nnn[nH]3)c2c(C)c1Cc1ccc(Cl)cc1 [Example 23, 8-chloro-3-(4-chlorobenzyl)-2,4-dimethyl-5-(1H-tetrazol-5-ylmethoxy)quinoline]",< 10000
3,"Cc1nc2c(Cl)ccc(OCC(=O)O)c2c(OC(F)F)c1Sc1ccc(Cl)cc1 [Example 24, [8-chloro-3-(4-chlorophenylsulfanyl)-4-difluoromethoxy-2-methyl-quinolin-5-yloxy]acetic Acid]",< 100
4,"Cc1nc2c(Cl)ccc(CC(=O)O)c2c(OC(F)F)c1Cc1ccc(Cl)cc1 [Example 25, [8-chloro-3-(4-chlorobenzyl)-4-difluoromethoxy-2-methylquinolin-5-yl]acetic acid]",< 1000
5,"Cc1nc2c(Cl)ccc(OCC(=O)O)c2c(OC(F)F)c1Cc1ccc(S(C)(=O)=O)cc1 [Example 26, [8-chloro-4-difluoromethoxy-3-(4-methanesulfonylbenzyl)-2-methylquinolin-5-yloxy]acetic acid]",< 100
6,"Cc1nc2c(F)ccc(OCC(=O)O)c2c(OC(F)F)c1Cc1ccc(Cl)cc1 [Example 27, [3-(4-chlorobenzyl)-4-difluoromethoxy-8-fluoro-2-methylquinolin-5-yloxy]acetic acid]",< 100
7,"Cc1nc2c(Cl)ccc(CC(=O)O)c2c(C)c1Cc1ccc(S(C)(=O)=O)cc1 [Example 28, [8-chloro-3-(4-methanesulfonylbenzyl)-2,4-dimethylquinolin-5-yl]acetic acid]",< 1000
8,"CCc1nc2c(Cl)ccc(OCC(=O)O)c2c(OC(F)F)c1Cc1ccc(S(C)(=O)=O)cc1 [Example 29, [8-chloro-4-difluoromethoxy-2-ethyl-3-(4-methanesulfonylbenzyl)-quinolin-5-yloxy]acetic acid]",< 100
9,"Cc1c(Cc2ccc(Cl)cc2)c(OC(F)F)nc2c(F)ccc(OCC(=O)O)c12 [Example 30, [3-(4-chlorobenzyl)-2-difluoromethoxy-8-fluoro-4-methylquinolin-5-yloxy]-acetic Acid]",< 100
10,"Cc1c(Cc2ccc(F)cc2)c(OC(C)C)nc2c(Cl)ccc(OCC(=O)O)c12 [Example 31, [8-chloro-3-(4-fluorobenzyl)-2-isopropoxy-4-methylquinolin-5-yloxy]acetic Acid]",< 1000
11,"Cc1nc2c(Cl)ccc(OCC(=O)O)c2c(OC(C)C)c1Cc1ccc(F)cc1 [Example 32, [8-chloro-3-(4-fluorobenzyl)-4-isopropoxy-2-methylquinolin-5-yloxy]acetic Acid]",< 1000
12,"Cc1nc2c(Cl)ccc(OC(C)C(=O)O)c2c(C)c1Cc1ccc(Cl)cc1 (stereo not drawn) [Example 33, 2-[8-chloro-3-(4-chlorobenzyl)-2,4-dimethylquinolin-5-yloxy]propionic Acid]",< 100
13,"Cc1c(Cc2ccc(S(C)(=O)=O)cc2)c(OC(F)F)nc2c(Cl)ccc(OCC(=O)O)c12 [Example 34, [8-chloro-2-difluoromethoxy-3-(4-methanesulfonylbenzyl)-4-methylquinolin-5-yloxy]acetic Acid]",< 100
14,"Cc1nc2c(Cl)ccc(OCC(=O)O)c2c(OC(F)F)c1Cc1ccc(S(C)(=O)=O)cc1Cl [Example 35, [8-chloro-3-(2-chloro-4-methanesulfonylbenzyl)-4-difluoro-methoxy-2-methylquinolin-5-yloxy]acetic Acid]",< 100
15,"Cc1c(Cc2ccc(S(C)(=O)=O)cc2)c(OC(F)F)nc2c(Cl)ccc(CC(=O)O)c12 [Example 36, [8-chloro-2-difluoromethoxy-3-(4-methanesulfonylbenzyl)-4-methylquinolin-5-yl]acetic Acid]",< 100
16,"CCc1nc2c(Cl)ccc(OCC(=O)O)c2c(OC(F)F)c1Cc1ccc(F)cc1 [Example 37, [8-chloro-4-difluoromethoxy-2-ethyl-3-(4-fluorobenzyl)quinolin-5-yloxy]acetic Acid]",< 100
17,"Cc1nc2c(Cl)ccc(OCC(=O)O)c2c(C)c1Cc1ccc(S(C)(=O)=O)cc1Cl [Example 38, [8-chloro-3-(2-chloro-4-methanesulfonylbenzyl)-2,4-dimethylquinolin-5-yloxy]acetic Acid]",< 100
18,"CCc1nc2c(Cl)ccc(OCC(=O)O)c2c(OC(F)F)c1Cc1ccc(Cl)cc1 [Example 39, [8-chloro-3-(4-chlorobenzyl)-4-difluoromethoxy-2-ethylquinolin-5-yloxy]acetic Acid]",< 100
